In ChEMBL document CHEMBL4814065, “Taurultams incorporating arylsulfonamide: First in vitro inhibition studies of α-, β- and γ-class Carbonic Anhydrases from Vibrio cholerae and Burkholderia pseudomallei” (Eur J Med Chem, 2021):

What was measured:
[1] = Inhibition of Burkholderia pseudomallei beta carbonic anhydrase preincubated with enzyme for 15 mins by phenol red-based stopped-flow CO2 hydration assay
[2] = Inhibition of Vibrio cholerae beta carbonic anhydrase preincubated with enzyme for 15 mins by phenol red-based stopped-flow CO2 hydration assay
[3] = Inhibition of Vibrio cholerae alpha carbonic anhydrase preincubated with enzyme for 15 mins by phenol red-based stopped-flow CO2 hydration assay
[4] = Inhibition of Burkholderia pseudomallei gamma carbonic anhydrase preincubated with enzyme for 15 mins by phenol red-based stopped-flow CO2 hydration assay
[5] = Inhibition of Vibrio cholerae gamma carbonic anhydrase preincubated with enzyme for 15 mins by phenol red-based stopped-flow CO2 hydration assay
[6] = Selectivity index, ratio of Ki for Vibrio cholerae alpha carbonic anhydrase to Ki for human carbonic anhydrase 2
[7] = Selectivity index, ratio of Ki for Vibrio cholerae gamma carbonic anhydrase to Ki for human carbonic anhydrase 2
[8] = Selectivity index, ratio of Ki for Vibrio cholerae beta carbonic anhydrase to Ki for human carbonic anhydrase 2
[9] = Selectivity index, ratio of Ki for Burkholderia pseudomallei beta carbonic anhydrase to Ki for human carbonic anhydrase 2
[10] = Selectivity index, ratio of Ki for Burkholderia pseudomallei gamma carbonic anhydrase to Ki for human carbonic anhydrase 2

| Structure (SMILES) | Ki [1] [nM] | Ki [2] [nM] | Ki [3] [nM] | Ki [4] [nM] | Ki [5] [nM] | Ratio Ki [6] | Ratio Ki [7] | Ratio Ki [8] | Ratio Ki [9] | Ratio Ki [10] |
| --- | --- | --- | --- | --- | --- | --- | --- | --- | --- | --- |
| NS(=O)(=O)c1ccc(N2CN(Cc3cccc(Cl)c3)CCS2(=O)=O)cc1 | 416 | 3970 | 37.7 | 68.7 | 6770 | – | – | – | – | – |
| NS(=O)(=O)c1ccc(N2CN(Cc3c(F)c(F)c(F)c(F)c3F)CCS2(=O)=O)cc1 | 81.8 | 4440 | 8.5 | 824 | 8110 | – | – | – | – | – |
| NS(=O)(=O)c1ccc(CCN2CN(Cc3c(F)cccc3F)CCS2(=O)=O)cc1 | 393 | 952 | 8 | 19.5 | 8820 | 0.14 | 156 | 16.9 | 7 | 0.3 |
| NS(=O)(=O)c1ccc(N2CCCCS2(=O)=O)cc1 | – | – | – | > 50000 | – | – | – | – | – | – |
